Assay results reported in patent US20220401448A1, “Pharmaceutical Compositions Comprising an Inhibitor of a Histon-deacetylase (HDACi) and an Agonist of Toll-like-receptor 7 and/or 8 (TLR7 and/or TLR8) and Their Use in the Treatment of Cancer” (priority 2019, published 2022).
Values after ≈ are worked out from the molar mass of the structure shown. Like-named read-outs stand apart in the source and are kept apart here.

Columns and labels:
[1] = tested on: SKOV3^WT ovarian carcinoma cell line; assay: Screening of SKOV3^WT for HERV expression using qPCR; format: cell-based; settings: for ΔCt HERV Henv: untreated 15.87 ± 0.56; for ΔCt HERV KISD: untreated 17.66 ± 0.23; for ΔCt HERV Kpol: untreated 18.16 ± 0.48; for ΔCt HERV Kenv: untreated 18.49 ± 0.45; for ΔCt HERV IDDMK1.2: untreated 18.68 ± 0.41; for ΔCt KERV Kseminoma: untreated 18.90 ± 0.41; for ΔCt HERV V3.1: untreated 19.32 ± 0.41; for ΔCt HERV Kgag: untreated 19.47 ± 0.58; for ΔCt HERV Fpol: untreated 19.69 ± 0.37; for ΔCt HERV KLTR: untreated 19.91 ± 0.60; for ΔCt HERV Eenv: untreated 20.10 ± 0.51; for ΔCt HERV Wprt: untreated 20.48 ± 0.72; for ΔCt HERV FRD1: untreated 21.71 ± 0.60; for ΔCt HERV Wenv: untreated 22.12 ± 0.53; for ΔCt HERV WE1: untreated 22.12 ± 0.62; for ΔCt HERV V1: untreated 22.95 ± 1.89; for ΔCt HERV V2: untreated 23.11 ± 2.07; for ΔCt HERV Penv: untreated 25.26 ± 0.48; for ΔCt HERV Pgag: untreated 25.33 ± 0.31; for ΔCt HERV HC2pol: untreated 25.99 ± 0.57; for ΔCt HERV Ppol: untreated 26.05 ± 0.31; for ΔCt HERV C: untreated 26.20 ± 0.36; for ΔCt HERV MER34.1: untreated 27.96 ± 0.43; for ΔCt HERV T: untreated 28.36 ± 0.87; for ΔCt HERV L: untreated 28.42 ± 1.52; for ΔCt HERV Fc1: untreated 29.68 ± 0.57; for ΔCt HERV Spol: untreated 32.00 ± 0.73
Method: In particular, the SKOV3^WT ovarian carcinoma cell line was screened for HERV expression using quantitative PCT (qPCR). […] Gene expression was considered enforced when more than 3 PCR-cycles of difference (Untreated−Treated) was calculated (n≥3).
18S ribosomal RNA serves as standard.

HERV-V1 and V2 = assay: ChIP (anti-H3K9ac) with qPCR of HERV-V1 and V2; format: cell-based; settings: SKOV3, OvCar3, OvCa236
Method: While the data concerning the transcriptional upregulation of HERV-V1/V2 upon HDAC inhibition were confirmed, it is unclear whether this is a direct effect of the drugs on epigenetic marks proximate to sites of HERV-V1/V2 integration. For this reason, ChIP-analyses of relevant histones were performed (ChIP=chromatin immunoprecipitation, was performed as described in Nakato R. et al. “Methods for ChIP-seq analysis: A practical workflow and advanced applications”, Methods 2020, doi.org/10.1016/j.ymeth.2020.03.005). Histone H3 along with H2A, H2B and H4 is involved in the structure of chromatin in eukaryotic cells. Histone H3 can undergo several different types of epigenetic modifications that influence cellular processes. These modifications include acetylation, phosphorylation, methylation, ubiquitination, and ADP-ribosylation and occur on the N-terminal tail domains of histone H3. […] In most species, histone H3 is primarily acetylated at lysine 9, 14, 18, and 27. […] We analyzed not only the ovarian cell lines SKOV3 and OVCar3, but also the primary cancer cell line OvCa236 derived from a patient. […] We therefore performed Immunoprecipitation using a anti-histone H3K9ac (Acetyl H3K9) polyclonal antibody and performed quantitative PCT (qPCR) as already described in Example 2.
HERV-V1 and V2, respectively, were analyzed separately. […]

SKOV3 cells = assay: Dose-response of HERV transcription by qPCR, SKOV3; settings: FIG. 9
From the text: The term ΔCt reflects the difference (Δ) in cycle (C) thresholds (t). […] Measurement of specific RNA transcripts like HERV-V1/V2 by qPCR is usually performed in relation to the standard 18S, more or less transcription products are expressed in + or −ΔCt. Furthermore, differences in ΔCt between treated and untreated cells were shown as ΔΔCt.

[2] = tested on: Peripheral Blood Mononuclear Cells (PBMC); assay: Induction of apoptosis in PBMC from healthy volunteers; settings: 24 h of drug exposure, 1×IC50 (SKOV3 values)
From the text: The drug doses (1×IC50) employed for both compound classes were those obtained in SKOV3 cells.

[3] = tested on: SKOV3 ovarian cancer cell line; assay: MTT proliferation assay, single drugs, SKOV3; format: cell-based; settings: Homo sapiens
[4] = tested on: OvCa28 primary ovarian cancer cells; assay: MTT proliferation assay, single drugs, OvCa28; format: cell-based; settings: for resistance of primary ovarian cancer cells compared to SKOV3: OvCa28 IC50 vs SKOV3 IC50; for IC50: read-out: IC50 (cell growth)
Method: OvCa28 primary ovarian cancer cells were isolated from a pretreated patient (patient number 28). These primary ovarian cancer cells were treated individually with either the HDAC inhibitor Romidepsin or the TLR7 agonist Vesatolimod as shown in FIG. 4. Cell growth was determined by the MTT proliferation assay.

[5] = tested on: OvCar3 ovarian cancer cell line; assay: Individual effects (IC50), OvCar3; format: cell-based; settings: Homo sapiens, OVCAR-3
[6] = tested on: OvCa2810 primary ovarian cancer cells; assay: Individual effects (IC50), OvCa2810; format: cell-based; settings: OvCa2810, single drug
[7] = tested on: OvCa236 primary ovarian cancer cells; assay: Individual effects (IC50), OvCa236; format: cell-based; settings: OvCa236, single drug
NFkB activity = NFkB activity by luciferase assay (NanoLuc reporter vector with NF-κB response element); format: cell-based
Method: In order to make conclusions about NFkB activation, the NFkB activity was analyzed by luciferase assay. The NanoLuc® Reporter Vector with NF-κB Response Element from Promega was used for this purpose.
The pNL3.2.NF-κB-RE[NlucP/NF-κB-RE/Hygro] Vector pNL3.2. (GenBank® Accession Number JQ513377) contains five copies of an NF-κB response element (NF-κB-RE) that drives transcription of a destabilized form of NanoLuc® luciferase, an engineered small (23.3 kDa) luciferase fusion protein. The NlucP reporter consists of NanoLuc® luciferase with a C-terminal fusion to PEST, a protein destabilization domain, which responds more quickly and with greater magnitude to changes in transcriptional activity than unmodified NanoLuc® luciferase. NanoLuc® (Nluc) luciferase is a small enzyme (19.1 kDa) engineered for optimal performance as a luminescent reporter. The luminescent reaction is ATP-independent and designed to suppress background luminescence for maximal assay sensitivity.
Without stimulation we detect about 6000 RLU. […] In summary, loss of NFkB was confirmed not only by Western Blot, but also in this functional test by loss of NFkB functionality using the reporter vector with NF-κB response element.

SKOV3^WT xenograft = settings: i.p. Romidepsin 1 mg/kg, Vesatolimod 5 mg/kg, four times at 3 day intervals
Method: 1 mm^3 tumor pieces were implanted subcutaneosly into six to eight week old female NMRI nude mice by minimal operative intervention. […] Three days after mice were intraperitoneally treated at doses of 1 mg/kg and 5 mg/kg body weight four times at 3 day intervals for 12 consecutive days.

[8] = common vehicles; cited from earlier work
[9] = SK-OV-3, SKOV3, single drug, read-out: IC50
[10] = OvCar3, single drug, read-out: IC50

Molecule | ΔCt HERV Henv ([1]; 1x drug) | ΔCt HERV KISD ([1]; 1x drug) | ΔCt HERV Kpol ([1]; 1x drug) | ΔCt HERV Kenv ([1]; 1x drug) | ΔCt HERV IDDMK1.2 ([1]; 1x drug) | ΔCt KERV Kseminoma ([1]; 1x drug) | ΔCt HERV V3.1 ([1]; 1x drug) | ΔCt HERV Kgag ([1]; 1x drug) | ΔCt HERV Fpol ([1]; 1x drug) | ΔCt HERV KLTR ([1]; 1x drug) | ΔCt HERV Eenv ([1]; 1x drug) | ΔCt HERV Wprt ([1]; 1x drug) | ΔCt HERV FRD1 ([1]; 1x drug) | ΔCt HERV Wenv ([1]; 1x drug) | ΔCt HERV WE1 ([1]; 1x drug) | ΔCt HERV V1 ([1]; 1x drug) | ΔCt HERV V2 ([1]; 1x drug) | rate of apoptosis [2] | IC50 [6] [µM] | IC50 [7] [µM] | other results
O=C(CCCCCCC(=O)Nc1ccccc1)NO [Vorinostat, vorinostat] | 15.51 ± 0.31 | 17.71 ± 0.19 | 18.81 ± 0.30 | 19.26 ± 1.00 | 18.29 ± 0.29 | 20.25 ± 0.18 | 19.22 ± 0.33 | 19.17 ± 0.41 | 20.37 ± 0.49 | 19.31 ± 0.42 | 20.08 ± 0.25 | 20.80 ± 0.34 | 22.51 ± 0.45 | 22.03 ± 0.34 | 22.18 ± 0.32 | 15.48 ± 0.78 | 15.46 ± 0.79 | about 6% | – | – | ΔCt HERV Penv ([1]; 1x drug): 25.39 ± 0.49; ΔCt HERV Pgag ([1]; 1x drug): 25.45 ± 0.11; ΔCt HERV HC2pol ([1]; 1x drug): 25.52 ± 0.39; ΔCt HERV Ppol ([1]; 1x drug): 26.34 ± 0.33; ΔCt HERV C ([1]; 1x drug): 27.84 ± 0.59; ΔCt HERV MER34.1 ([1]; 1x drug): 26.62 ± 0.62; ΔCt HERV T ([1]; 1x drug): 28.24 ± 0.72; ΔCt HERV L ([1]; 1x drug): 28.08 ± 0.90; ΔCt HERV Fc1 ([1]; 1x drug): 30.36 ± 0.84; ΔCt HERV Spol ([1]; 1x drug): 30.80 ± 0.75; HERV-V2 expression levels ([1]; SKOV3, qPCR, FIG. 1B): increased; expression of HERV-V1 and V2 transcripts after H3K9ac immunoprecipitation (HERV-V1 and V2): enhanced; expression of HERV-V1 and V2 (SKOV3 cells): increased
C/C=C1\NC(=O)[C@H]2CSSCC/C=C/[C@H](CC(=O)N[C@H](C(C)C)C(=O)N2)OC(=O)[C@H](C(C)C)NC1=O [Romidepsin, romidepsin] | 14.87 ± 0.30 | 17.10 ± 0.35 | 18.19 ± 0.51 | 18.48 ± 0.26 | 17.66 ± 0.27 | 19.70 ± 0.76 | 18.63 ± 0.36 | 18.57 ± 0.43 | 19.67 ± 0.22 | 21.02 ± 1.95 | 19.99 ± 0.51 | 20.97 ± 1.15 | 22.07 ± 0.64 | 22.33 ± 0.33 | 21.92 ± 1.02 | 15.30 ± 0.36 | 15.24 ± 0.25 | about 3% | 0.006 | 0.003 | ΔCt HERV Penv ([1]; 1x drug): 25.46 ± 0.60; ΔCt HERV Pgag ([1]; 1x drug): 26.02 ± 0.50; ΔCt HERV HC2pol ([1]; 1x drug): 24.85 ± 0.35; ΔCt HERV Ppol ([1]; 1x drug): 26.55 ± 0.39; ΔCt HERV C ([1]; 1x drug): 26.79 ± 0.97; ΔCt HERV MER34.1 ([1]; 1x drug): 25.78 ± 0.13; ΔCt HERV T ([1]; 1x drug): 29.31 ± 0.84; ΔCt HERV L ([1]; 1x drug): 27.62 ± 0.95; ΔCt HERV Fc1 ([1]; 1x drug): 28.17 ± 3.80; ΔCt HERV Spol ([1]; 1x drug): 31.04 ± 1.11; ΔCt HERV P4.6 ([1]; 1x drug, untreated […]): 31.65 ± 1.16; IC50 ([3]; SK-OV-3): 0.004 µM; IC50 ([3]; SK-OV-3, read-out: IC50 (cell growth)): 0.004 µg/mL; resistance of primary ovarian cancer cells compared to SKOV3 [4]: ~188 fold; IC50 [4]: 0.75 µg/mL (≈ 1.39 µM); IC50 [5]: 0.007 µM
CCCCOc1nc(N)c2c(n1)N(Cc1cccc(CN3CCCC3)c1)CC(=O)N2 [Vesatolimod, vesatolimod] | – | – | – | – | – | – | – | – | – | – | – | – | – | – | – | – | – | about 8% | 40 | 32 | IC50 ([3]; SK-OV-3, SKOV3, single drug, MTT, read-out: IC50 (cell growth)): 12.5 µg/mL; IC50 [3, 9]: 39 µM; IC50 ([4]; OvCa28, single drug, MTT): 30 µg/mL (≈ 73.1 µM); resistance of primary ovarian cancer cells compared to SKOV3 [4]: ~2 fold; IC50 [5, 10]: 32 µM; NFkB activity (reporter) (NFkB activity; in both cell lines, OvCar 3 and SKOV3, without stimulation about 6000 RLU): slightly reduced activity; total tumor volume (SKOV3^WT xenograft): did reduce the total tumor volume; dissolution [8]: better dissolution profile in common vehicles
CC(C)Cn1cnc2c(N)nc3ccccc3c21 [Imiquimod, imiquimod] | – | – | – | – | – | – | – | – | – | – | – | – | – | – | – | – | – | about 3% | 500 | 500 | IC50 [3, 9]: 15 µM; IC50 [5, 10]: 23 µM; dissolution [8]: difficult to dissolve
TNFα | – | – | – | – | – | – | – | – | – | – | – | – | – | – | – | – | – | – | – | – | response of NF-κB reporter vector (NFkB activity; positive control, inflammatory stimulation): 20.000 RLU
